Laboratory results taken from patent US6613747B2, “6-O-carbamoyl ketolide antibacterials” (Ortho-McNeil Pharmaceutical, Inc., priority 2000, dated 2003).
Converted amounts (≈) assume the structure as drawn. Where two headings read alike, the source gives them in different places.

Tests used:
Assay in all cases: MIC, microdilution broth method (NCCLS)
Assay type in all cases: cell-based
[1] = system: E. coli OC2605; conditions: A: E. coli OC2605, 35° C., 16-20 hours
Protocol: (§1) Minimal inhibitory concentration (MIC) has been an indicator of in vitro antibacterial activity widely used in the art. The in vitro antimicrobial activity of the compounds was determined by the microdilution broth method following the test method from the National Committee for Clinical Laboratory Standards (NCCLS). This method is described in the NCCLS Document M7-A4, Vol. 17, No. 2, “Methods for Dilution Antimicrobial Susceptibility Test for Bacteria that Grow Aerobically—Fourth Edition”, which is incorporated herein by reference.
(§2) In this method two-fold serial dilutions of drug in cation adjusted Mueller-Hinton broth are added to wells in microdilution trays. The test organisms are prepared by adjusting the turbidity of actively growing broth cultures so that the final concentration of test organism after it is added to the wells is approximately 5×10^4 CFU/well.
(§3) Following inoculation of the microdilution trays, the trays are incubated at 35° C. for 16-20 hours and then read. […] The amount of growth in the wells containing the test compound is compared with the amount of growth in the growth-control wells (no test compound) used in each tray. As set forth in Table 1, compounds of the present invention were tested against a variety of Gram positive and Gram negative pathogenic bacteria resulting in a range of activities depending on the organism tested.

[2] = system: E. faecalis ATCC29212; conditions: C: E. faecalis ATCC29212, 35° C., 16-20 hours
Protocol: as §1, §2, §3

[3] = system: S. aureus ATCC29213; conditions: B: S. aureus ATCC29213, 35° C., 16-20 hours
Protocol: as §1, §2, §3

[4] = system: S. pneumoniae ATCC49619; conditions: D: S. pneumoniae ATCC49619, 35° C., 16-20 hours
Protocol: as §1, §2, §3

[5] = system: H. influenzae ATCC49247; conditions: E: H. influenzae ATCC49247, 35° C., 16-20 hours
Protocol: as §1, §2, §3

Structure (SMILES)	MIC [1] [µg/mL]	MIC [2] [µg/mL]	MIC [3] [µg/mL]	MIC [4]	MIC [5] [µg/mL]	MIC ([1]; Escherichia coli, read-out: MIC) [µg/mL]	MIC ([2]; Enterococcus faecalis, read-out: MIC) [µg/mL]	MIC ([3]; Staphylococcus aureus, read-out: MIC) [µg/mL]	MIC ([4]; Streptococcus pneumoniae, read-out: MIC) [µg/mL]
CC[C@H]1OC(=O)[C@H](C)C(=O)[C@H](C)[C@@H](O[C@@H]2O[C@H](C)C[C@H](N(C)C)[C@H]2O)[C@](C)(OC(=O)NCc2ccccc2)C[C@@H](C)C(=O)[C@H](C)[C@H]2NC(=O)O[C@@]21C [Compound 1]	>16	0.12 (≈ 0.164 µM)	4 (≈ 5.47 µM)	0.03 µg/mL (≈ 0.041 µM)	–	–	–	–	–
CC[C@H]1OC(=O)[C@H](C)C(=O)[C@H](C)[C@@H](O[C@@H]2O[C@H](C)C[C@H](N(C)C)[C@H]2O)[C@](C)(OC(=O)NCCCc2ccccc2)C[C@@H](C)C(=O)[C@H](C)[C@H]2NC(=O)O[C@@]21C [Compound 2]	16 (≈ 21.1 µM)	0.25 (≈ 0.329 µM)	1 (≈ 1.32 µM)	0.06 µg/mL (≈ 0.079 µM)	2 (≈ 2.63 µM)	–	–	–	–
CC[C@H]1OC(=O)[C@H](C)C(=O)[C@H](C)[C@@H](O[C@@H]2O[C@H](C)C[C@H](N(C)C)[C@H]2O)[C@](C)(OC(=O)NCCc2ccccc2)C[C@@H](C)C(=O)[C@H](C)[C@H]2NC(=O)O[C@@]21C [Compound 3]	>16	1 (≈ 1.34 µM)	4 (≈ 5.36 µM)	0.12 µg/mL (≈ 0.161 µM)	8 (≈ 10.7 µM)	–	–	–	–
CC[C@H]1OC(=O)[C@H](C)C(=O)[C@H](C)[C@@H](O[C@@H]2O[C@H](C)C[C@H](N(C)C)[C@H]2O)[C@](C)(OC(=O)NC/C=C/c2ccccc2)C[C@@H](C)C(=O)[C@H](C)[C@H]2NC(=O)O[C@@]21C [Compound 4]	>16	0.12 (≈ 0.158 µM)	0.25 (≈ 0.33 µM)	0.03 µg/mL (≈ 0.0396 µM)	1 (≈ 1.32 µM)	–	–	–	–
CC[C@H]1OC(=O)[C@H](C)C(=O)[C@H](C)[C@@H](O[C@@H]2O[C@H](C)C[C@H](N(C)C)[C@H]2O)[C@](C)(OC(=O)NCc2ccc(Br)cc2)C[C@@H](C)C(=O)[C@H](C)[C@H]2NC(=O)O[C@@]21C [Compound 5]	>16	0.25 (≈ 0.308 µM)	0.5 (≈ 0.617 µM)	0.03 µg/mL (≈ 0.037 µM)	–	–	–	–	–
CC[C@H]1OC(=O)[C@H](C)C(=O)[C@H](C)[C@@H](O[C@@H]2O[C@H](C)C[C@H](N(C)C)[C@H]2O)[C@](C)(OC(N)=O)C[C@@H](C)C(=O)[C@H](C)[C@H]2NC(=O)O[C@@]21C [Compound 6]	>16	1 (≈ 1.56 µM)	4 (≈ 6.23 µM)	0.12 µg/mL (≈ 0.187 µM)	–	–	–	–	–
CC[C@H]1OC(=O)[C@H](C)C(=O)[C@H](C)[C@@H](O[C@@H]2O[C@H](C)C[C@H](N(C)C)[C@H]2O)[C@](C)(OC(=O)NCc2ccc(-n3cccn3)cc2)C[C@@H](C)C(=O)[C@H](C)[C@H]2NC(=O)O[C@@]21C [Compound 7]	16 (≈ 20.1 µM)	0.06 (≈ 0.0752 µM)	0.5 (≈ 0.627 µM)	0.03 µg/mL (≈ 0.0376 µM)	4 (≈ 5.01 µM)	–	–	–	–
CC[C@H]1OC(=O)[C@H](C)C(=O)[C@H](C)[C@@H](O[C@@H]2O[C@H](C)C[C@H](N(C)C)[C@H]2O)[C@](C)(OC(=O)NC/C=C/c2ccc(-c3ncccn3)cc2)C[C@@H](C)C(=O)[C@H](C)[C@H]2NC(=O)O[C@@]21C [Compound 32, Carbamic acid, [(2E)-3-[4-(2-pyrimidinyl)phenyl]-2-propenyl]-, (3aS,4R,7R,9R,10R,11R,13R,15R,15aR)-4-ethyltetradecahydro-3a,7,9,11,13,15-hexamethyl-2,6,8,14-tetraoxo-10-[[3,4,6-trideoxy-3-(dimethylamino)-β-D-xylo-hexopyranosyl]oxy]-2H-oxacyclotetradecino[4,3-d]oxazol-11-yl ester]	–	–	–	–	–	16 (≈ 19.1 µM)	0.06 (≈ 0.0718 µM)	0.12 (≈ 0.144 µM)	0.06 (≈ 0.0718 µM)
CC[C@H]1OC(=O)[C@H](C)C(=O)[C@H](C)[C@@H](O[C@@H]2O[C@H](C)C[C@H](N(C)C)[C@H]2O)[C@](C)(OC(=O)NC/C=C/c2ccc(-n3ccnn3)cc2)C[C@@H](C)C(=O)[C@H](C)[C@H]2NC(=O)O[C@@]21C [Compound 33]	8 (≈ 9.7 µM)	0.06 (≈ 0.0727 µM)	0.12 (≈ 0.145 µM)	≦0.015 μg/mL	–	–	–	–	–
CC[C@H]1OC(=O)[C@H](C)C(=O)[C@H](C)[C@@H](O[C@@H]2O[C@H](C)C[C@H](N(C)C)[C@H]2O)[C@](C)(OC(=O)NC/C=C/c2ccnc3ccccc23)C[C@@H](C)C(=O)[C@H](C)[C@H]2NC(=O)O[C@@]21C [Compound 34]	8 (≈ 9.89 µM)	0.06 (≈ 0.0742 µM)	0.12 (≈ 0.148 µM)	≦0.015 μg/mL	–	–	–	–	–
